Measured values as given in patent publication US8222297B2, “Aniline or phenol mustards linked to DNA-affinic molecules or water-soluble aromatic rings and their use as cancer therapeutic agents” (Academia Sinica, priority 2007, dated 2012).
Where two headings read alike, the source gives them in different places.

Columns and labels:
[1] = test system: CCRF-CEM human lymphoblastic leukemia cells; assay: In vitro cytotoxicity, XTT assay
CCRF-CEM/Taxol = assay: In vitro cytotoxicity, XTT assay, taxol-resistant subline; conditions: for IC50: Homo sapiens, CCRF-CEM, 72 h, read-out: IC50 CCRF-CEM/Taxol, XTT assay, 72-hr incubation; for fold of cross-resistant, CCRF-CEM/Taxol vs IC50 of parent cell line: number in brackets
[2] = test system: human mammary carcinoma MX-1 xenograft; assay: Antitumor therapeutic effect in nude mice bearing MX-1 xenograft; format: in vivo; conditions: for Tumor remission achieved: doses and schedules as in Table 2 (30-150 mg/kg, i.v.); for log cell kill: estimated by Eq. 4 from remission time; for Duration complete remission maintained without relapse: one cycle 5-dose-treatment, 3 out of 3 mice
Protocol: (§1) Athymic nude mice bearing the nu/nu gene were used for human breast tumor MX-1 xenograft (FIGS. 3 and 4) and human brain glioma U87 GM xenograft (FIG. 5). Nude mice were obtained from National Cancer Institute, Frederick, Md. Male mice 6 weeks old or older weighing 22 g or more were used for experiments with subcutaneous tumor inoculation as described previously.^62 Drug was administrated via the tail vein by iv injection. Tumor volumes were assessed by measuring length×width×height (or width) by using caliper. Vehicle used was 20 μL DMSO in 180 μL saline. All animal studies were conducted in accordance with the guidelines of the U.S. National Institutes of Health Guide for the Care and Use of Animals and the protocol approved by the Institutional Animal Care and Use Committee.
(§2) Animals. Athymic nude mice bearing the nu/nu gene were obtained from NCI, Frederick, Md. and used for all human tumor xenografts. Male nude mice 6 weeks or older weighing 20-24 g or more were used. Compounds were administered via the tail vein for i.v. injection or infusion as described previously.^59 A typical formulation for chemotherapeutic studies for each drug was dissolved in DSMO to make a 25 mg/ml fresh solution, 0.4 ml of this solution was mixed with 0.3 ml of Tween 80, plus 1.3 ml to make 2 ml of 5 mg/ml solution. Bolus injection volume was 0.1-0.2 ml per mouse. Tumor volume was assessed by measuring length×width×height (or width) by using a caliper. For tumor-bearing nude mice during the course of the experiment, the body weight refers to total weight minus the weight of the tumor. All animal studies were conducted in accordance with the guidelines for the National Institute of Health Guide for the Care and Use of Animals and the protocol approved by the Institutional Animal Care and Use Committee.
The therapeutic effects of a drug against human tumor xenografts in nude mice, under the optimal therapeutic conditions but without any lethality due to drug toxicity, the following degrees of therapeutic effects are defined and calculated by the following formula:
[formula] • where T0 is the initial tumor size (in mm^3) at beginning of drug treatment; • Tc is tumor size of untreated control group on a given date; and • Tx is tumor size of the drug treated group on a given date.
[formula] • Where T0 and Tx are as specified as above. • Tumor disappearance (complete remission or CR) is defined by the effect where [Tx=0] for a period of time (in days) for a proportion of animals (NCR/N), where N is the total number of animals in the group, and NCR is the number of mice in the group that achieved CR. • Tumor relapse is quantitatively calculated by [The Day tumor relapsed(Drelp)−The Day CR achieved(DCR)] (Eq. 3) • for a proportion of animals (Nrelp/N) where N is the total number of animals in the group, and Nrelp is the number of the mice in the group that relapsed. • The log cell kill (LCK) of the tumor tissue after a given chemotherapy that reached CR is estimated by: LCK=log [2^(Tumor remission in days/Tumor doubling time in days)] (Eq. 4)

MX-1 cells = assay: Inhibition of biosynthesis of DNA, RNA and protein (tracer incorporation); format: cell-based, human; conditions: for degrees of inhibiting biosynthesis of DNA and RNA, maximized: [3H]thymidine / [3H]adenosine incorporation; for persistence of inhibition of biosynthesis: printed 'over 6-24 hrs'
Protocol: [^3H]Thymidine (1 uCi), [^3H]adenosine (1 μCi) and [^3H]leucine (2 μCi) were used as the tracers for incorporation into DNA, RNA and protein, respectively. […] Incubation was terminated at each time points as indicated. For details of the method see Chou et al. Cancer Research 43: 3074-3079, 1983. […] The half-maximal inhibition was reached within 15-30 min and persisted for over 6-24 hrs.

[3] = test system: Human colon carcinoma HCT-116 cells; assay: In vitro cytotoxicity, SRB assay
[4] = test system: Human mammary carcinoma (MX-1) tumor cells; assay: In vitro cytotoxicity, SRB assay
[5] = test system: human glioma U87 GM s.c. xenograft; assay: Therapeutic effect in nude mice bearing U87 glioma xenograft; format: in vivo
Protocol: as §1
The therapeutic effects of N-mustard compounds, BO-1049, 1051 and 1055, against human glioma U87 GM s.c. xenograft in nude mice were given in FIG. 5, A and B. U87 glioma is known to be refractory tumor that can not be effectively treated with cell-cycle specific anti-tumor drugs such as taxol, epothilones, or arabinosylcytosine. However, cell-cycle non-specific drugs such as alkylating agent, cyclophosphamide or BCNU, yields better therapeutic results. […] However, upon 6 days of recession of treatment with BO-1049 or BO-1055, the tumor began to regrow.
as §2

[6] = Homo sapiens, CCRF-CEM, 72 h, read-out: IC50 CCRF-CEM, XTT assay, 72-hr incubation
[7] = Homo sapiens, 72 h, read-out: IC50 MX-1, SRB assay, 72-hr incubation
[8] = read-out: IC50 CCRF-CEM, XTT assay, 72-hr incubation

**Q.** What does the source list for `O=C(Nc1ccc(N(CCCl)CCCl)cc1)Nc1c2ccccc2nc2ccccc12` [BO-1034, 1-Acridin-9-yl-3{4-[bis(2-chloroethyl)amino]phenyl}urea]?
**A.** IC50 [1, 6]: 198 nM; IC50 (CCRF-CEM/Taxol): 418 nM; fold of cross-resistant, CCRF-CEM/Taxol vs IC50 of parent cell line (CCRF-CEM/Taxol): 2.1 x

**Q.** Which results are given for `O=C(Nc1ccc(N(CCCl)CCCl)cc1)Nc1cc(CO)cc(Nc2c3ccccc3nc3ccccc23)c1` [BO-1037, 1-[3-(Acridin-9-ylamino)-5-hydroxymethylphenyl]-3-{4-[bis(2-chloroethyl)amino]phenyl}-urea]?
**A.** Tumor remission achieved [2]: CR in parts of the mice; IC50 [1, 6]: 54.5 nM

**Q.** Which results are given for `Cc1cc(NC(=O)Nc2ccc(N(CCCl)CCCl)cc2)c2ccccc2n1` [BO-1038, 1-{4-[Bis(2-chloroethyl)amino]phenyl}-3-(2-methyl-quinolin-4-yl)urea]?
**A.** time to half-maximal inhibition of biosynthesis (MX-1 cells; 10 μM): 15 to 30 min; degrees of inhibiting biosynthesis of DNA and RNA, maximized (MX-1 cells; 10 μM): 50-80%; persistence of inhibition of biosynthesis (MX-1 cells; 10 μM): 6 to 24 h; Tumor remission achieved [2]: complete tumor remission; log cell kill [2]: > 4.1; Duration complete remission maintained without relapse [2]: over 70 days; IC50 ([3]; Homo sapiens, HCT-116, 72 h, read-out: IC50 HCT-116, SRB assay, 72-hr incubation): 1240 nM; fold of cross-resistant, CCRF-CEM/Taxol vs IC50 of parent cell line (CCRF-CEM/Taxol): 2.2 x

**Q.** How did the “Tumor remission achieved” value [2] turn out when `Cc1cccc2c(Nc3cc(CO)cc(NC(=O)Nc4ccc(N(CCCl)CCCl)cc4)c3)c3ccccc3nc12` [BO-1050, 1-{4-[bis(2-chloroethyl)amino]phenyl}-3-[3-hydroxymethyl-5-(4-methylacridin-9-ylamino)phenyl]urea] was run?
**A.** CR in parts of the mice

**Q.** And the log cell kill [2]?
**A.** > 4.1

**Q.** And the “Duration complete remission maintained without relapse” value [2]?
**A.** over 70 days

**Q.** And the IC50 [1, 6]?
**A.** 30 nM

**Q.** What about the IC50 [4, 7] of the same compound?
**A.** 128 nM

**Q.** What about the “fold of cross-resistant, CCRF-CEM/Taxol vs IC50 of parent cell line” value (CCRF-CEM/Taxol) of the same compound?
**A.** 12.8 x

**Q.** With `Cc1ccc(Nc2c3ccccc3nc3c(C)cccc23)cc1NC(=O)Nc1ccc(N(CCCl)CCCl)cc1` [BO-1051] as the compound, how does the “delay in reaching maximal effect on DNA and RNA biosynthesis” value (MX-1 cells; 10 μM) read?
**A.** about 1 hr

**Q.** And the “time to half-maximal inhibition of biosynthesis” value (MX-1 cells; 10 μM)?
**A.** 15 to 30 min

**Q.** And the “degrees of inhibiting biosynthesis of DNA and RNA, maximized” value (MX-1 cells; 10 μM)?
**A.** 50-80%

**Q.** What about the “persistence of inhibition of biosynthesis” value (MX-1 cells; 10 μM) of the same compound?
**A.** 6 to 24 h

**Q.** And the inhibition at 10 µM (MX-1 cells; Homo sapiens, MX1, 0.5 h, after initial activation within the first 30 min, read-out: protein synthesis: moderate inhibition following initial activation)?
**A.** ~20%

**Q.** And the “Tumor remission achieved” value [2]?
**A.** complete tumor remission

**Q.** And the log cell kill [2]?
**A.** > 4.1

**Q.** And the “Duration complete remission maintained without relapse” value [2]?
**A.** over 70 days

**Q.** And the tumor-growth suppression ([5]; 100 mg/kg, Q2D×5, i.v.-injection, n=3)?
**A.** complete tumor-growth suppression

**Q.** And the “tumor size as % of original tumor size” value ([5]; 100 mg/kg, Q2D×5, n=3, one cycle, observed 10 and 12 days after last dose on Day 16)?
**A.** 18%

**Q.** And the “therapeutic effect compared with cyclophosphamide” value ([5]; BO-1049 150, BO-1051 100, BO-1055 30 mg/kg vs cyclophosphamide 80 mg/kg, all Q2D×5, parallel study)?
**A.** superior therapeutic effects than cyclophosphamide

**Q.** And the IC50 [1, 6]?
**A.** 74 nM

**Q.** What about the IC50 [4, 7] of the same compound?
**A.** 174 nM

**Q.** What does the source list for `Cc1ccc(NC(=O)Nc2ccc(N(CCCl)CCCl)cc2)cc1Nc1c2cccc(C)c2nc2c(C(=O)NCCN(C)C)cccc12` [BO-1053, 9-[5-(3-{4-[Bis(2-chloroethyl)amino]phenyl}ureido)-2-methylphenylamino]-5-methylacridine-4-carboxylic acid (2-dimethylaminoethyl)amide]?
**A.** Remark (tolerability of dose) ([2]; 70 mg/kg, Q2D × 5, i.v.): Too high dose; Tumor remission achieved [2]: complete tumor remission; IC50 [1, 8]: 12 nM; fold of cross-resistant, CCRF-CEM/Taxol vs IC50 of parent cell line (CCRF-CEM/Taxol): 15.3 x

**Q.** What does the source list for `CCOC(=O)Nc1cc(COC(=O)Nc2ccc(N(CCCl)CCCl)cc2)cc(Nc2c3ccccc3nc3ccccc23)c1` [BO-1054, (3-(Acridin-9-ylamino)-5-{4-[bis(2-chloroethyl)amino]phenylcarbamoyloxymethyl}-phenyl)carbamic acid ethyl ester]?
**A.** IC50 [1, 8]: 84 nM; IC50 ([4]; read-out: IC50 MX-1, SRB assay, 72-hr incubation): 605 nM; IC50 ([3]; read-out: IC50 HCT-116, SRB assay, 72-hr incubation): 757 nM

**Q.** `O=C(Nc1cc(CO)cc(Nc2c3ccccc3nc3ccccc23)c1)Oc1ccc(N(CCCl)CCCl)cc1` [BO-1062, [3-(Acridin-9-ylamino)-5-hydroxymethylphenyl]carbamic acid 4-[bis(2-chloro-ethyl)amino]phenyl ester] was tested. Which “Tumor remission achieved” value [2] did it give?
**A.** complete tumor remission

**Q.** And the IC50 [1, 6]?
**A.** 57 nM

**Q.** And the IC50 (CCRF-CEM/Taxol)?
**A.** 112 nM

**Q.** What about the “fold of cross-resistant, CCRF-CEM/Taxol vs IC50 of parent cell line” value (CCRF-CEM/Taxol) of the same compound?
**A.** 2.0 x

**Q.** What does the source list for `Cc1cccc2c(Nc3cc(CO)cc(NC(=O)Oc4ccc(N(CCCl)CCCl)cc4)c3)c3ccccc3nc12` [BO-1063, [3-Hydroxymethyl-5-(4-methylacridin-9-ylamino)phenyl]carbamic acid 4-[bis(2-chloroethyl)amino]phenyl ester]?
**A.** Remark (tolerability of dose) ([2]; 100 mg/kg, QD × 3, i.v.): Too high dose; IC50 [1, 6]: 75 nM; IC50 (CCRF-CEM/Taxol): 81 nM; fold of cross-resistant, CCRF-CEM/Taxol vs IC50 of parent cell line (CCRF-CEM/Taxol): 1.1 x

**Q.** Which results are given for `Cc1ccc(Nc2c3ccccc3nc3c(C)cccc23)cc1NC(=O)Oc1ccc(N(CCCl)CCCl)cc1` [BO-1064, [2-Methyl-5-(4-methylacridin-9-ylamino)phenyl]carbamic acid 4-[bis(2-chloro-ethyl)amino]phenyl ester]?
**A.** Tumor remission achieved [2]: complete tumor remission; IC50 [1, 6]: 116 nM; fold of cross-resistant, CCRF-CEM/Taxol vs IC50 of parent cell line (CCRF-CEM/Taxol): 1.4 x

**Q.** Which “Remark (tolerability of dose)” value ([2]; 100 mg/kg, QD × 3, i.v.) does the source give for `CCOC(=O)Nc1cc(COC(=O)Oc2ccc(N(CCCl)CCCl)cc2)cc(Nc2c3ccccc3nc3ccccc23)c1` [BO-1065, Carbonic acid 3-(acridin-9-ylamino)-5-ethoxycarbonylaminobenzyl ester 4-[bis(2-chloroethyl)amino]phenyl ester] here?
**A.** Too high dose

**Q.** What does the source list for `COc1cc(NC(=O)Oc2ccc(N(CCCl)CCCl)cc2)cc(Nc2c3ccccc3nc3ccccc23)c1` [BO-1066, [3-(Acridin-9-ylamino)-5-methoxyphenyl]carbamic acid 4-[bis(2-chloroethyl)-amino]phenyl ester]?
**A.** Tumor remission achieved [2]: complete tumor remission; fold of cross-resistant, CCRF-CEM/Taxol vs IC50 of parent cell line (CCRF-CEM/Taxol): 1.5 x
